Results taken from BindingDB's records for patent US9284322 (Research Triangle Institute, 2016).

These compounds were tested against Isoform Alpha-4-2 of Neuronal acetylcholine receptor subunit alpha-4 (Alpha-4-2)/Neuronal acetylcholine receptor subunit beta-2 (Rat, UniProt P09483+P12390) (assay: Adult male rat cerebral cortices (Pelfreeze Biological, Rogers, Ark.) were homogenized in 39 volumes of ice-cold 50 mM Tris buffer (pH 7.4 at 4° C.) containing 120 mM NaCl, 5 mM KCl, 2 mM CaCl2, and 1 mM MgCl2 and sedimented at 37,000 g for 10 min at 4° C. The supernatant was discarded, the pellet resuspended in the original volume of buffer, and the wash procedure repeated twice more. After the last centrifugation, the pellet was resuspended in 1/10 its original homogenization volume and stored at −80° C. until needed. […] Total and nonspecific bindings were determined in the presence of vehicle and 300 μM (−)-ni). Conditions: 25 °C.
Sequence of Isoform Alpha-4-2 of Neuronal acetylcholine receptor subunit alpha-4 (Alpha-4-2)/Neuronal acetylcholine receptor subunit beta-2 (P09483 as listed by the source): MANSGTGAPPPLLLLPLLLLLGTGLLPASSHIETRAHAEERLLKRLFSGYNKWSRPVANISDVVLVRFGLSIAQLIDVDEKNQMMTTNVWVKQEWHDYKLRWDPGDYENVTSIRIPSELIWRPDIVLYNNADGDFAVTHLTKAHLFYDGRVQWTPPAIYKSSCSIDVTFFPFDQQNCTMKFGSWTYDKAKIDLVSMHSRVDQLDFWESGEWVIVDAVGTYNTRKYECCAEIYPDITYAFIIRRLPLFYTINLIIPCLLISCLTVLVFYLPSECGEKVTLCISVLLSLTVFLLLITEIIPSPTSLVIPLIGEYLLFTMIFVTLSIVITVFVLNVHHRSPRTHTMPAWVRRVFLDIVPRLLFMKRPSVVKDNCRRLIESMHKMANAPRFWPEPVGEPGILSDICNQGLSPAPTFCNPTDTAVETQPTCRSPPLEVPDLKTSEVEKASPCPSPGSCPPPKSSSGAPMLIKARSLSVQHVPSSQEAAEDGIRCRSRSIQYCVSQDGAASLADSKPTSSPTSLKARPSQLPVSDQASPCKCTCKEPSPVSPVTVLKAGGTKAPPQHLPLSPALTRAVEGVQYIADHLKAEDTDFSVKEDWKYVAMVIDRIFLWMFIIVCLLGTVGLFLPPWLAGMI
Sequence of Isoform Alpha-4-2 of Neuronal acetylcholine receptor subunit alpha-4 (Alpha-4-2)/Neuronal acetylcholine receptor subunit beta-2 (P12390 whole entry, canonical isoform): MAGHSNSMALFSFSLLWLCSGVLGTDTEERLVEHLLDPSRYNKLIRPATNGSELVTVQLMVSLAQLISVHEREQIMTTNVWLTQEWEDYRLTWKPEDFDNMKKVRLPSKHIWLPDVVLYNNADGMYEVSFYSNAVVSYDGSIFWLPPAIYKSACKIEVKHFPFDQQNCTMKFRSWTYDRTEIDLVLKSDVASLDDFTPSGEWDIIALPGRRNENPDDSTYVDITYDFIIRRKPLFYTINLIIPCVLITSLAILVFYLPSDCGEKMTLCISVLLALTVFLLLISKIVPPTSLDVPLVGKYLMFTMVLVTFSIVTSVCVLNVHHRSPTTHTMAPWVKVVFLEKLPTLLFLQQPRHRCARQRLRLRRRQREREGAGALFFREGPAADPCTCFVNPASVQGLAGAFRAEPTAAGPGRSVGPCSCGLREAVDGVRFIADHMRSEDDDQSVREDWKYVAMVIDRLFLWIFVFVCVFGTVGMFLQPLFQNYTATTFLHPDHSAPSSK

Row | Structure (SMILES) | Ki
1 | c1ncc(-c2cncc(C3CC4CCC3N4)c2)cn1 (stereo not drawn) [US9284322, Table 7, Compound 1] | 0.12 nM
2 | Fc1ncc(C2CC3CCC2N3)cc1-c1cncnc1 (stereo not drawn) [US9284322, Table 7, Compound 2] | 0.84 nM
3 | Clc1ncc(C2CC3CCC2N3)cc1-c1cncnc1 (stereo not drawn) [US9284322, Table 7, Compound 3] | 0.32 nM
